According to US20250255876A1, “COMPOSITIONS AND METHODS FOR CANCER TREATMENT” (ARIEL SCIENTIFIC INNOVATIONS LTD., priority 2021, published 2025):

Tests used:
[1] = tested on: U2OS cells; assay: Colony survival assay, U2OS cells; type: cell-based; conditions: varying cisplatin, 48 hours
Protocol: (§1) H1975 cells were plated in 24-well plates at 50,000 cells/well (for 50 µM inhibitor treatment) or 20,000 cells/well (for […] inhibitor treatment). U2OS and A549 cells were plated in 24-well plates at 5000 cells/well. The next day, cells were treated with varying concentrations of cisplatin, either with or without added inhibitor compound. After 48 hours of cisplatin+compound treatment, the cells were washed 3 times with PBS×1 and fresh media applied. After 4 days of recovery, the cells were stained with methylene blue and imaged using a Nikon SMZ25 stereomicroscope. The images were analyzed using the ImageJ (National Institutes of Health) area measurement tool to quantify total colony size in each well.

[2] = tested on: A549 cells; assay: Colony survival assay, A549 cells; type: cell-based; conditions: for survival rate, combined treatment: A549, 5 μM cisplatin + 50 μM compound; for toxicity / cell viability, compound alone: A549, 50 μM compound alone; for sensitization effect to cisplatin: A549, cisplatin + 50 μM compound; for cell survival with cisplatin plus inhibitor: A549, varying cisplatin, 48 hours
Protocol: as §1
(§2) Cells were plated in 24-well plates at 50,000 cells/well (H1975 line) or 10,000 cells/well (A549 line). The next day, cells were treated with varying concentrations of cisplatin ([…]), with or without 50 μM compound. For the untreated control wells containing only cisplatin, DMSO was applied in place of the compound. After 48 hours of cisplatin+compound treatment, the cells were washed 3 times with PBS and fresh media was applied. After 4 days of recovery, the cells were stained with methylene blue and imaged using a Nikon SMZ25 stereomicroscope. The images were analyzed using the ImageJ (National Institutes of Health) area measurement tool to quantify total colony size in each well.
(§3) In order to assess the ability of the selected compounds to sensitize cells during cisplatin treatment, the inventors established a colony survival assay comparing the viability of cells treated with cisplatin alone or with combined treatment of cisplatin and 50 μM compound. For the compound screen, we used two lung cancer cell lines: human non-small lung carcinoma H1975 cells, and epithelial lung adenocarcinoma A549 cells. Out of ten compounds tested, compounds c #2 and c #3 were identified with the most significant sensitization effect and were chosen for future characterization. […] Survival rate was reduced from 90% in 5 μM cisplatin treatment to 50% survival in the combined treatment (FIGS. 11A-B). H1975 cells presented similar behavior following doxorubicin treatment (FIG. 11C). IC50 was calculated using linear regression, presenting a clear reduction of cisplatin's IC50 in all treatments.

[3] = tested on: H1975 cells; assay: Colony survival assay, H1975 cells; type: cell-based; conditions: for survival rate, combined treatment: H1975, 5 μM cisplatin + 50 μM compound; for toxicity / cell viability, compound alone: H1975, 50 μM compound alone; for sensitization effect to cisplatin: H1975, cisplatin + 50 μM compound; for sensitization to doxorubicin: H1975, doxorubicin + 50 μM compound, 48 h; for cell survival with cisplatin plus inhibitor: H1975, varying cisplatin, 48 hours
Protocol: as §1, §2, §3

[4] = tested on: γH2AX foci in A549 cells; assay: γH2AX foci immunofluorescence, A549 cells; type: cell-based; conditions: for cells with more than 80 foci or very bright signal, combined treatment / number of γH2AX foci/cell, combined treatment: A549, 10 μM cisplatin + 50 μM compound; for number of γH2AX foci/cell, combined treatment: overnight
Protocol: (§4) H1975 and A549 cells were grown on glass coverslips in 12-well plates with the appropriate media, and fixed in 4% paraformaldehyde for 10 minutes at room temperature. Cells were permeabilizedin 0.5% TritonX100 in PBS×1 for 10 minutes at room temperature and then blocked in 5% BSA in 0.1% PBS×1-Tween for 1 hour at room temperature. Anti-phospho-Histone H2A.X primary antibody ([…]; 05-636-25UG) diluted 1:400 in 5% BSA in 0.1% PBS×1-Tween was added for 1 hour at room temperature. Fluorescent-dye conjugated secondary antibody was applied for 1 hour at room temperature. The coverslips were washed between each step with PBS×1. Nuclei were stained with DAPI (1:2000 dilution) at room temperature in the dark for 3 minutes. Coverslips were mounted on glass slides and imaged using an Olympus 1×81 microscope. For all treatments, cells with fewer than 80 foci were scored manually (FIG. 4B), and cells with more than 80 foci and very bright signals were scored automatically by using the “Analyze Particles” function in ImageJ (National Institutes of Health) after setting a suitable threshold.
(§5) Next, the inventors examined whether combined treatment of cisplatin with c #2 or c #3 correlates with an increase in DNA damage, which might explain the compound's sensitization effect. A549 and H1975 cell lines were exposed to combined overnight treatment with cisplatin and c #2 or c #3, and the levels of γH2AX foci were monitored. In both cell lines, a clear increase in the number of foci was observed after combined treatment, compared to cells treated with cisplatin or compounds alone (FIG. 12A).
(§6) Combined treatment of cisplatin with c #3 correlates with an increase in DNA damage. Levels of γ-H2AX foci, a marker for DNA double-strand breaks, were compared in H1975, A549 and B16F10 cell lines.

[5] = tested on: γH2AX foci in H1975 cells; assay: γH2AX foci immunofluorescence, H1975 cells; type: cell-based, human; conditions: for number of γH2AX foci/cell, combined treatment: overnight
Protocol: as §4, §5, §6

[6] = H1975, 5 μM cisplatin + 50 μM compound

| Structure (SMILES) | cell survival with cisplatin plus inhibitor [1] | survival rate, combined treatment [2] | toxicity / cell viability, compound alone [2] | sensitization effect to cisplatin [2] | cell survival with cisplatin plus inhibitor [2] | survival rate, combined treatment [3] | toxicity / cell viability, compound alone [3] | sensitization effect to cisplatin [3] | sensitization to doxorubicin [3] | cell survival with cisplatin plus inhibitor [3] | cells with more than 80 foci or very bright signal, combined treatment [4] | number of γH2AX foci/cell, combined treatment [4] | number of γH2AX foci/cell, combined treatment [5, 6] | further results |
| --- | --- | --- | --- | --- | --- | --- | --- | --- | --- | --- | --- | --- | --- | --- |
| Cc1oc(-c2ccco2)nc1CC(=O)N[C@@H](C(=O)O)c1ccccc1 [Compound 3] | reduction in cell survival | 50% | no reduction in cell viability | approximately twofold sensitization effect | reduction in cell survival | 50% | no reduction in cell viability | approximately twofold sensitization effect | sensitized | reduction in cell survival | significantly more abundant | significant increase in the number of γH2AX foci/cell | significant increase in the number of γH2AX foci/cell | toxicity / cell viability, compound alone ([2]; listed as c #3): caused no toxicity; toxicity / cell viability, compound alone ([3]; listed as c #3): caused no toxicity; increase in γ-H2AX foci/cell in co-treated cells ([4]; A549, 10 μM cisplatin + 50 μM c #3, 16 h): 2 fold; γ-H2AX signal, c #3 alone ([4]; A549, c #3 alone): no effect on the γ-H2AX signal; increase in γ-H2AX foci/cell in co-treated cells ([5]; H1975, 5 μM cisplatin + 50 μM c #3, 16 h): 2 fold; cells with more than 80 foci or very bright signal, combined treatment [5, 6]: significantly more abundant; γ-H2AX signal, c #3 alone ([5]; H1975, c #3 alone): no effect on the γ-H2AX signal |
| CNc1nc(N2CCCCC2)nc(-n2cnc(SCC(N)=O)n2)n1 [Compound 2] | reduction in cell survival | 50% | no reduction in cell viability | approximately twofold sensitization effect | reduction in cell survival | 50% | no reduction in cell viability | approximately twofold sensitization effect | sensitized | reduction in cell survival | significantly more abundant | significant increase in the number of γH2AX foci/cell | significant increase in the number of γH2AX foci/cell | toxicity / cell viability, compound alone ([2]; listed as c #2): caused no toxicity; toxicity / cell viability, compound alone ([3]; listed as c #2): caused no toxicity |
